Experimental findings from patent publication US20030175912A1, “Method of producing L-serine by fermentation” (AJINOMOTO CO. INC, priority 1998, published 2003) are described below.

Assay [1] has as its system Brevibacterium flavum AJ13325. The assay can be described thus: Growth in the presence of β-(2-thienyl)-DL-alanine. Type of assay: cell-based. Particulars: 0.25 g/L of β-(2-thienyl)-DL-alanine. As to the method: Similarly, the term “β-(2-thienyl)-DL-alanine resistance” refers to the property that a bacterium grows faster than the wild type in a medium containing β-(2-thienyl)-DL-alanine. For example, those strains that form colonies on a solid medium containing 0.25 g/L of β-(2-thienyl)-DL-alanine at 30° C. within 4 to 5 days are said to have β-(2-thienyl)-DL-alanine resistance.
(§1) To select β-(2-thienyl)-DL-alanine resistant strains from NG treated strains using Brevibacterium flavum AJ13377 as a parent strain, Brevibacterium flavum AJ13377 cells were NG treated and washed before their inoculation on a minimal medium for selection. The minimal medium for selection was a medium that contained 20 g of glucose, 1 g of ammonium sulfate, 1 g of potassium dihydrogen phosphate, 2.5 g of urea, 0.4 g of magnesium sulfate heptahydrate, 0.01 g of iron (II) sulfate heptahydrate, 0.01 g of manganese sulfate tetra- to pentahydrate, 50 μg of biotin, 200 μg of thiamin hydrochloride, 200 μg of nicotinic acid amide, and 250 mg of β-(2-thienyl)-DL-alanine per liter of distilled water. The NG treated mutant was incubated in the above-described medium at 30° C. for 5 to 10 days. The cell culture thus obtained was spread on a bouillon agar medium and incubated at 30° C. for 24 hours for colony formation. β-(2-Thienyl)-DL-alanine resistant strains were obtained from the strains that formed colonies. […]

Assay [2] has as its system 3-PGDH derived from AJ13377 strain. Nature of the assay: Feedback inhibition of 3-PGDH by L-serine, enzyme of AJ13377. Type of assay: biochemical, Brevibacterium flavum. Particulars: compared with wild type strain ATCC 14067; FIG. 1. The method, then: (§2) After collecting cells from the culture broth of each strain, the cells were washed twice with physiological saline and suspended in 50 mM sodium phosphate buffer (pH 7.0) containing 2 mM dithiothreitol. After ice cooling, the suspension was subjected to a sonicator to fragment the cells and the resulting liquid was ultracentrifuged. The ultracentrifugaton was run at 45,000 rpm for 1 hour to obtain a crude enzyme solution.
(§3) The enzyme activity of 3-PGDH was measured by the method of Salach H. J. et al. (Method in Enzymology, vol 9, 216-220 (1966)).
(§4) More specifically, 0.4 ml of 0.015 M NAD, 0.12 ml of 0.25 M EDTA (pH 9, NaOH), 0.1 ml of 0.05 M glutathione (pH 6, KOH), 0.5 ml of 1 M hydrazine (pH 9, acetate), 0.6 ml of 1 M Tris (pH 9, HCl), a suitable concentration of L-serine (0 to 40 mM), and water to make 2.3 ml, warmed to 25° C. in advance, were added. Then, 0.2 ml of the crude enzyme solution was added and the temperature was kept the same for 5 minutes. Thereafter, 0.5 ml of 0.1 M 3-PGA (3-phosphoglycerate disodium salt, pH 7, NaOH) was added. After stirring, the absorbance at 340 nm of the reaction mixture was measured for 30 seconds. The reaction was carried out at 25° C.
(§5) For the measurement of activity, Hitachi U-2000A spectrophotometer was used.

Assay [3] relates to 3-PGDH derived from AJ13325 strain. Nature of the assay: Feedback inhibition of 3-PGDH by L-serine, enzyme of AJ13325. Type of assay: biochemical, Brevibacterium flavum. Conditions: compared with AJ13324; FIG. 1. As to the method:
as §2, §3, §4, §5

Assay [4] deals with 3-PGDH derived from Brevibacterium flavum AJ13327. Nature of the assay: Feedback inhibition of 3-PGDH by L-serine, enzyme of AJ13327. Type of assay: biochemical. As to the method: as §2, §3
[…] Then, 0.2 ml of the crude enzyme solution was added and the temperature was kept the same for 5 minutes. Thereafter, 0.5 ml of 0.1 M 3-PGA (3-phosphoglycerate disodium salt, pH 7, NaOH) was added. After stirring, the absorbance at 340 nm of the reaction mixture was measured for 30 seconds. The reaction was carried out at 25° C.
as §5

For assay [5], the system named is 3-PGDH derived from AJ13324 strain. The assay can be described thus: Feedback inhibition of 3-PGDH by L-serine, enzyme of AJ13324. Conditions: compared with AJ13377; FIG. 1. It counts as biochemical, Brevibacterium flavum. As to the method:
as §2, §3, §4, §5

The subject of assay [6] is 3-PGDH derived from a wild type coryneform bacterium (ATCC 14067). The assay can be described thus: Feedback inhibition of 3-PGDH by L-serine, enzyme of wild type strain. Type of assay: biochemical, Brevibacterium flavum. Particulars: 10 mM of L-serine. As to the method: as §2, §3, §4, §5
Assay [7] has as its system Brevibacterium flavum AJ13324 and AJ13327. Nature of the assay: Growth in the presence of azaserine. Type of assay: cell-based. Particulars: 0.25 g/L of azaserine. As to the method:
More specifically, for example, the term “azaserine resistance” refers to the property that a bacterium grows faster than the wild type in a medium containing azaserine. For example, those strains that form colonies on a solid medium containing 0.25 g/L of azaserine at 30° C. within 4 to 5 days are said to have azaserine resistance.
as §1, with “azaserine” for “β-(2-thienyl)-DL-alanine”, “strain, NG treated” for “strain,”, “cells after washed” for “cells”, “inoculated” for “NG treated and washed before their inoculation”, “Azaserine” for “β-(2-Thienyl)-DL-alanine”, “colonies. The mutants thus obtained included many strains that accumulated L-serine in considerable amounts at high yields.” for “colonies.”

`NC(Cc1cccs1)C(=O)O` (racemic) [β-(2-thienyl)-DL-alanine]: the “growth of resistant strains in the presence of β-(2-thienyl)-DL-alanine” value in assay [1] is reported as “able to grow”.

Consider `N[C@@H](CO)C(=O)O` [L-serine], for which the “L-serine sensitivity of 3-PGDH” value in assay [2] is “relieved of L-serine sensitivity”; in assay [3] it was “of the same level as the AJ13324 strain”; in assay [5] it was “more relieved of L-serine sensitivity”. For the same compound, the “feedback inhibition of 3-PGDH by L-serine” value in assay [4] (80 mM L-serine, FIG. 1) is given as “completely desensitized”. The “3-PGDH activity retained in the presence of L-serine” value in assay [4] (80 mM of L-serine, relative to activity in the absence of L-serine) is on record as about 100%. Also, the “inhibition of 3-PGDH activity by L-serine” value in assay [6] was “almost completely inhibited”.

In the case of `[N-]=[N+]=CC(=O)OC[C@H](N)C(=O)O` [azaserine], the “growth of resistant strains in the presence of azaserine” value in assay [7] was “able to grow”.
